Source: US20070184017A1, “Anti-aging treatment using copper and zinc compositions” (priority 2006, published 2007)

Tested on: wrinkling on face
Assay: Gel composition applied to wrinkled face twice daily (Example 1)
Type: in vivo, human
Settings: person
Text: A person is suffering from wrinkling on their face. A gel composition suitable for treatment of skin containing an effective amount of copper-zinc malonate active ingredient is routinely applied to their face twice daily.

For copper-zinc malonate, the wrinkling on face was “reduced or eliminated”.
